Laboratory results published in PubChem BioAssay AID1963451 (Molecular Pharmacology Branch, DTP, NCI, 2024).

Test system: 521955-158-R6-J3-PDC complex spheroid growth, % test/control
Experiment: Anticancer human tumor 521955-158-R6-J3-PDC patient-derived pancreatic carcinoma cell line growth inhibition [Asc]
Conditions: for IC50: curve of first compound; for viability, T/C: stronger effect = lower value
Outline: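 Tumor cells were grown as multicellular spheroids with stromal HUVEC and mesenchymal stem cells and treated singly or in combination. Concentrations fell in half-log steps from the clinical Cmax, or from 10 microM where none was known.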
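Also: spheroids exposed to compounds for 7 days.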
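For viability, T/C in this document: 100% = DMSO vehicle control wells.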

O=C(c1ccc(F)c(F)c1Nc1ccc(I)cc1F)N1CC(O)([C@@H]2CCCCN2)C1 + CNC(C)C(=O)NC1CN(S(=O)(=O)c2cccc(S(=O)(=O)N3CCC4CCC(C(=O)NC(c5ccccc5)c5ccccc5)N4C(=O)C(NC(=O)C(C)NC)C3)c2)CCC2CCC(C(=O)NC(c3ccccc3)c3ccccc3)N2C1=O
IC50 (second compound 0.00316 µM): 569 nM
IC50 (second compound 0.01 µM): 261 nM
IC50 (second compound 0.0316 µM): 291 nM
IC50 (second compound 0.1 µM): 503 nM
IC50 (second compound 0.316 µM): 207 nM
IC50 (second compound 1 µM): 139 nM
viability, T/C (second compound 0.00316 µM, first compound 0.00316 µM): 150%
viability, T/C (second compound 0.00316 µM, first compound 0.01 µM): 127%
viability, T/C (second compound 0.00316 µM, first compound 0.0316 µM): 120%
viability, T/C (second compound 0.00316 µM, first compound 0.1 µM): 105%
viability, T/C (second compound 0.00316 µM, first compound 0.316 µM): 60%
viability, T/C (second compound 0.00316 µM, first compound 1 µM): 36%
viability, T/C (second compound 0.01 µM, first compound 0.00316 µM): 87.4%
viability, T/C (second compound 0.01 µM, first compound 0.01 µM): 84.9%
viability, T/C (second compound 0.01 µM, first compound 0.0316 µM): 94.8%
viability, T/C (second compound 0.01 µM, first compound 0.1 µM): 74.9%
viability, T/C (second compound 0.01 µM, first compound 0.316 µM): 45.5%
viability, T/C (second compound 0.01 µM, first compound 1 µM): 30.7%
viability, T/C (second compound 0.0316 µM, first compound 0.00316 µM): 88.7%
viability, T/C (second compound 0.0316 µM, first compound 0.01 µM): 88.6%
viability, T/C (second compound 0.0316 µM, first compound 0.0316 µM): 90.1%
viability, T/C (second compound 0.0316 µM, first compound 0.1 µM): 72%
viability, T/C (second compound 0.0316 µM, first compound 0.316 µM): 49.2%
viability, T/C (second compound 0.0316 µM, first compound 1 µM): 31%
viability, T/C (second compound 0.1 µM, first compound 0.00316 µM): 117%
viability, T/C (second compound 0.1 µM, first compound 0.01 µM): 94.3%
viability, T/C (second compound 0.1 µM, first compound 0.0316 µM): 102%
viability, T/C (second compound 0.1 µM, first compound 0.1 µM): 83.8%
viability, T/C (second compound 0.1 µM, first compound 0.316 µM): 65.7%
viability, T/C (second compound 0.1 µM, first compound 1 µM): 28.7%
viability, T/C (second compound 0.316 µM, first compound 0.00316 µM): 72.6%
viability, T/C (second compound 0.316 µM, first compound 0.01 µM): 76.1%
viability, T/C (second compound 0.316 µM, first compound 0.0316 µM): 72.5%
viability, T/C (second compound 0.316 µM, first compound 0.1 µM): 61%
viability, T/C (second compound 0.316 µM, first compound 0.316 µM): 43.6%
viability, T/C (second compound 0.316 µM, first compound 1 µM): 29.9%
viability, T/C (second compound 1 µM, first compound 0.00316 µM): 78.9%
viability, T/C (second compound 1 µM, first compound 0.01 µM): 70.9%
viability, T/C (second compound 1 µM, first compound 0.0316 µM): 95.4%
viability, T/C (second compound 1 µM, first compound 0.1 µM): 56.5%
viability, T/C (second compound 1 µM, first compound 0.316 µM): 39.5%
viability, T/C (second compound 1 µM, first compound 1 µM): 27.4%
